Patent US20250179032A1, “HETEROCYCLIC INHIBITORS OF GLUT9 FOR TREATMENT OF DISEASE” (HORIZON THERAPEUTICS IRELAND DAC, priority 2022, published 2025)

molecular target: T1, H. sapiens SLC2A9 variant 2 (GLUT9B) (Homo sapiens, UniProt Q9NRM0); assay: GLUT9 functional assay: uric acid uptake in HEK293T cells, allantoin formation by MS/MS as proxy of GLUT9B inhibition; format: cell-based; settings: 60 minute assay; HEK293T cells stably expressing GLUT9B and transiently A. oryzae uricase; uric acid 0.3 mM, 37° C.; read-out: 60 min IC50
T1 sequence (Q9NRM0 1-511 isoform Q9NRM0-2): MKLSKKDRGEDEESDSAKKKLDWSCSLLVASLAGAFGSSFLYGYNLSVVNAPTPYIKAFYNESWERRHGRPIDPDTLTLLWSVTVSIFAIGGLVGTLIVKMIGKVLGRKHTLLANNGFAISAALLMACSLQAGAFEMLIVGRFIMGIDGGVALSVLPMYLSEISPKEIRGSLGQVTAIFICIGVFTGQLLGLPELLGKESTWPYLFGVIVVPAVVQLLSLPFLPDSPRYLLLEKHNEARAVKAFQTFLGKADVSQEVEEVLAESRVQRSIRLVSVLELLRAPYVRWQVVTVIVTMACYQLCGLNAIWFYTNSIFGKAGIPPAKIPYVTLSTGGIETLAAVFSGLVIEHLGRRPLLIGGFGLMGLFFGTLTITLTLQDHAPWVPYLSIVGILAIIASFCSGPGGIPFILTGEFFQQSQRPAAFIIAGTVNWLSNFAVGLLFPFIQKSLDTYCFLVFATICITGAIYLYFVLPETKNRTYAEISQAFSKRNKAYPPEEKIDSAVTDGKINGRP
How it was run: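 Inhibition of GLUT9B-mediated urate uptake read as reduced allantoin formation, measured by MS/MS against allantoin standards in HEK293T matrix with log-logistic fitting. Stable GLUT9B HEK293T cells carrying transfected A. oryzae uricase were incubated 15 or 60 min at 37° C with uric acid at Km (0.3 mM), pH 7.4 gluconate buffer.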

IC50 [nM] | SMILES
< 500 | O=C(O)C1CCN(c2nc(CCCC(F)F)cnc2-c2cc(F)c3occc3c2)CC1 [Compound 188, 1-(6-(4,4-difluorobutyl)-3-(7-fluorobenzofuran-5-yl)pyrazin-2-yl)piperidine-4-carboxylic acid]
< 500 | COCCCc1cnc(-c2ccc3c(c2)OCO3)c(N2CCC(C(=O)O)CC2)n1 [Compound 189, 1-(3-(benzo[d][1,3]dioxol-5-yl)-6-(3-Methoxypropyl)Pyrazin-2-yl)piperidine-4-carboxylic acid]
< 500 | COCCCc1cnc(-c2cc(F)c3c(c2)OCO3)c(N2CCC(C(=O)O)CC2)n1 [Compound 190, 1-(3-(7-Fluorobenzo[d][1,3]dioxol-5-yl)-6-(3-Methoxypropyl)Pyrazin-2-yl)piperidine-4-carboxylic acid]
< 500 | COCCCc1cnc(-c2ccc3c(c2)OCO3)c(N2CCC(C(=O)O)CC2)c1 [Compound 191, 1-(2-(benzo[d][1,3]dioxol-5-yl)-5-(3-Methoxypropyl)Pyridin-3-yl)piperidine-4-carboxylic acid]
< 500 | COCCCc1cnc(-c2cc(F)c3c(c2)CCO3)c(N2CCC(C)(C(=O)O)CC2)n1 [Compound 192, 1-(3-(7-fluoro-2,3-dihydrobenzofuran-5-yl)-6-(3-methoxypropyl)pyrazin-2-yl)-4-methylpiperidine-4-carboxylic acid]
> 2000 | COCCCc1cnc(-c2ccc3c[nH]nc3c2)c(N2CCC(C(=O)O)CC2)n1 [Compound 193, 1-(3-(2H-indazol-6-yl)-6-(3-methoxypropyl)pyrazin-2-yl)piperidine-4-carboxylic acid]
> 2000 | COCCCc1cnc(-c2ccnc3[nH]ccc23)c(N2CCC(C(=O)O)CC2)n1 [Compound 194, 1-(6-(3-methoxypropyl)-3-(1H-pyrrolo[2,3-b]pyridin-4-yl)pyrazin-2-yl)piperidine-4-carboxylic acid]
> 2000 | COCCCc1cnc(-c2ccc3ncnn3c2)c(N2CCC(C(=O)O)CC2)n1 [Compound 195, 1-(3-([1,2,4]triazolo[1,5-a]pyridin-6-yl)-6-(3-methoxypropyl)pyrazin-2-yl)piperidine-4-carboxylic acid]
> 2000 | COCCCc1cnc(-c2cnc3nccn3c2)c(N2CCC(C(=O)O)CC2)n1 [Compound 196, 1-(3-(imidazo[1,2-a]pyrimidin-6-yl)-6-(3-methoxypropyl)pyrazin-2-yl)piperidine-4-carboxylic acid]
> 2000 | COCCCc1cnc(-c2ccc3c(C)[nH]nc3c2)c(N2CCC(C(=O)O)CC2)n1 [Compound 197, 1-(6-(3-methoxypropyl)-3-(3-methyl-2H-indazol-6-yl)pyrazin-2-yl)piperidine-4-carboxylic acid]
> 2000 | COCCCc1cnc(-c2ccc3nn(C)cc3c2)c(N2CCC(C(=O)O)CC2)n1 [Compound 198, 1-(6-(3-methoxypropyl)-3-(2-methyl-2H-indazol-5-yl)pyrazin-2-yl)piperidine-4-carboxylic acid]
> 2000 | COCCCc1cnc(-c2cnc3ccccc3c2)c(N2CCC(C(=O)O)CC2)n1 [Compound 199, 1-(6-(3-methoxypropyl)-3-(quinolin-3-yl)pyrazin-2-yl)piperidine-4-carboxylic acid]
> 2000 | COCCCc1cnc(-c2ccnc3ccccc23)c(N2CCC(C(=O)O)CC2)n1 [Compound 200, 1-(6-(3-methoxypropyl)-3-(quinolin-4-yl)pyrazin-2-yl)piperidine-4-carboxylic acid]
> 2000 | COCCCc1cnc(-c2cc(C(F)(F)F)nn2C)c(N2CCC(C(=O)O)CC2)n1 [Compound 201, 1-(6-(3-methoxypropyl)-3-(1-methyl-3-(trifluoromethyl)-1H-pyrazol-5-yl)pyrazin-2-yl)piperidine-4-carboxylic acid]
> 2000 | COCCCc1cnc(-c2ccnn2CCC(C)C)c(N2CCC(C(=O)O)CC2)n1 [Compound 202, 1-(3-(1-isopentyl-1H-pyrazol-5-yl)-6-(3-methoxypropyl)pyrazin-2-yl)piperidine-4-carboxylic acid]
> 2000 | COCCCc1cnc(-c2cc3sccc3s2)c(N2CCC(C(=O)O)CC2)n1 [Compound 203, 1-(6-(3-methoxypropyl)-3-(thieno[3,2-b]thiophen-2-yl)pyrazin-2-yl)piperidine-4-carboxylic acid]
> 2000 | COCCCc1cnc(-c2ccc3nsnc3c2)c(N2CCC(C(=O)O)CC2)n1 [Compound 204, 1-(3-(benzo[c][1,2,5]thiadiazol-5-yl)-6-(3-methoxypropyl)pyrazin-2-yl)piperidine-4-carboxylic acid]
> 2000 | COCCCc1cnc(-c2ccc3nccn3c2)c(N2CCC(C(=O)O)CC2)n1 [Compound 205, 1-(3-(imidazo[1,2-a]pyridin-6-yl)-6-(3-methoxypropyl)pyrazin-2-yl)piperidine-4-carboxylic acid]
> 2000 | COCCCc1cnc(-c2cnn3c2CCCC3)c(N2CCC(C(=O)O)CC2)n1 [Compound 206, 1-(6-(3-methoxypropyl)-3-(4,5,6,7-tetrahydropyrazolo[1,5-a]pyridin-3-yl)pyrazin-2-yl)piperidine-4-carboxylic acid]
> 2000 | COCCCc1cnc(-c2ccc3cncn3c2)c(N2CCC(C(=O)O)CC2)n1 [Compound 207, 1-(3-(imidazo[1,5-a]pyridin-6-yl)-6-(3-methoxypropyl)pyrazin-2-yl)piperidine-4-carboxylic acid]
> 2000 | COCCCc1cnc(-c2ccn3ccnc3c2)c(N2CCC(C(=O)O)CC2)n1 [Compound 208, 1-(3-(imidazo[1,2-a]pyridin-7-yl)-6-(3-methoxypropyl)pyrazin-2-yl)piperidine-4-carboxylic acid]
> 2000 | COCCCc1cnc(-c2cnn3c2OCCC3)c(N2CCC(C(=O)O)CC2)n1 [Compound 209, 1-(3-(6,7-dihydro-5H-pyrazolo[5,1-b][1,3]oxazin-3-yl)-6-(3-methoxypropyl)pyrazin-2-yl)piperidine-4-carboxylic acid]
500 to 2000 | COCCCc1cnc(-c2cnc3sccc3c2)c(N2CCC(C(=O)O)CC2)n1 [Compound 210, 1-(6-(3-methoxypropyl)-3-(thieno[2,3-b]pyridin-5-yl)pyrazin-2-yl)piperidine-4-carboxylic acid]
> 2000 | COCCCc1cnc(-c2ccc3nccn3n2)c(N2CCC(C(=O)O)CC2)n1 [Compound 211, 1-(3-(imidazo[1,2-b]pyridazin-6-yl)-6-(3-methoxypropyl)pyrazin-2-yl)piperidine-4-carboxylic acid]
> 2000 | COCCCc1cnc(-c2ccn3ncnc3c2)c(N2CCC(C(=O)O)CC2)n1 [Compound 212, 1-(3-([1,2,4]triazolo[1,5-a]pyridin-7-yl)-6-(3-methoxypropyl)pyrazin-2-yl)piperidine-4-carboxylic acid]
> 2000 | COCCCc1cnc(-c2cccc3cn(C)nc23)c(N2CCC(C(=O)O)CC2)n1 [Compound 213, 1-(6-(3-methoxypropyl)-3-(2-methyl-2H-indazol-7-yl)pyrazin-2-yl)piperidine-4-carboxylic acid]
> 2000 | COCCCc1cnc(-c2ccnc3c2ccn3C)c(N2CCC(C(=O)O)CC2)n1 [Compound 214, 1-(6-(3-methoxypropyl)-3-(1-methyl-1H-pyrrolo[2,3-b]pyridin-4-yl)pyrazin-2-yl)piperidine-4-carboxylic acid]
